Experiments:
[1] = biological target: T1, human toll like receptor 8 (hTLR8) (Homo sapiens, UniProt Q9NR97); assay: hTLR8 in-vitro functional assay (HEK-Blue hTLR8 SEAP reporter); assay type: cell-based; settings: HEK-Blue hTLR8 cells, overnight incubation
T1 construct: host or cells: HEK293 (HEK-Blue hTLR8)
T1 sequence (Q9NR97 27-1041): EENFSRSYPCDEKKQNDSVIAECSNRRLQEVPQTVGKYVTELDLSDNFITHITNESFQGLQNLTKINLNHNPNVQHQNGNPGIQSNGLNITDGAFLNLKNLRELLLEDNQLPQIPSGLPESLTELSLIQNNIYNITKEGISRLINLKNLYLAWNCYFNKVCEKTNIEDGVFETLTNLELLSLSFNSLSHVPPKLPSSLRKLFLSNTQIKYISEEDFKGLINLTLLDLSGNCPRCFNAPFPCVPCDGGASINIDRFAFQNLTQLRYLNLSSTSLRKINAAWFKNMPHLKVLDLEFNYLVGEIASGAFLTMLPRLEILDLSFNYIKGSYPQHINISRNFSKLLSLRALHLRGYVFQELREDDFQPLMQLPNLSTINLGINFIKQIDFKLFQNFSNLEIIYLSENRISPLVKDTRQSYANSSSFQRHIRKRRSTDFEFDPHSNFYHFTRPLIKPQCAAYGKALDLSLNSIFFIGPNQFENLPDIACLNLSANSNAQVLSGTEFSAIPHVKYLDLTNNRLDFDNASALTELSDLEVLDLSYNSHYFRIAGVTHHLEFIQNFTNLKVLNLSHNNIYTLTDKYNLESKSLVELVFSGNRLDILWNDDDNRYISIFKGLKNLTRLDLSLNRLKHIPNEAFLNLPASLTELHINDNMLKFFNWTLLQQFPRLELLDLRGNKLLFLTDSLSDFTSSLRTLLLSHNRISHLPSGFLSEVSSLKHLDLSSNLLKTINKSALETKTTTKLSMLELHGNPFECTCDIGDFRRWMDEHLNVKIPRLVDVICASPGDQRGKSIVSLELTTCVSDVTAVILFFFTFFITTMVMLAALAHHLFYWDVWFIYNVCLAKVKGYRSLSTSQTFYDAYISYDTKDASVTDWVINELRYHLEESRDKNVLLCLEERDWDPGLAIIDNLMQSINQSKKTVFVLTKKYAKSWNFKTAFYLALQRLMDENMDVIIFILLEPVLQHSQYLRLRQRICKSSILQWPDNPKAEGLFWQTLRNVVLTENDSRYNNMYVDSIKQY
Source text: (§1) To determine the ability of test compounds to activate the human toll like receptor 7 (hTLR7) or human toll like receptor 8 (hTLR8), cell-based reporter systems were utilized. HEK293 cells stably overexpressing either hTLR7 or hTLR8 along with a reporter gene containing an optimized secreted embryonic alkaline phosphatase gene (SEAP), under the control of the IFN-b minimal promoter fused to five NF-kB and AP-1-binding sites, were obtained from Invivogen (HEK-Blue™ hTLR7, cat #Hkb-htlr7; HEK-Blue™ hTLR8, cat #Hkb-htlr8). Stimulation of hTLR7 or hTLR8 in these cells activates NF-kB and AP-1 and induces the production of SEAP which can be quantified using an alkaline phosphatase detection reagent.
(§2) On day one of the assay, compounds were prepared using 11-point half-log serial dilutions from a 10 mM DMSO stock solution and 50 nL was spotted into 384-well plates (PerkinElmer, cat #6007480). Positive and negative controls were also spotted within the assay plate and were used to determine percent effect during the analysis process. After resuspension in DMEM assay media containing FBS heat inactivated (10%), Glutamax (2 mM) and Penicillin/Streptomycin, 10,000 cells/20 ul/well were added to previously prepared compound plates. Plates were incubated overnight (16-20 hrs) at 37° C. in a 5% CO2 environment. Prewetted Microclime lids (Labcyte, LLS-0310) were used to prevent evaporation. On day two of the assay, QUANTI-Blue™ detection reagent was prepared by reconstituting QUANTI-Blue™ powder (InvivoGen, Rep-qb1) with 100 ml of sterile water and allowed to equilibrate to 37° C. for 15 minutes. 20 ul of QUANTI-Blue™ detection reagent was added to each well and plates were incubated at room temperature for 180 min. At the end of the incubation, plates were read on an Envision (Perkin Elmer) plate reader capturing absorbance at 650 nm.
(§3) Using Positive (tool compound) and Negative (DMSO) controls, the percent (%) effect was calculated for each sample using the following equation: […]
(§4) The % effect at each concentration of compound was calculated utilizing the ABase software suite (IBDS) and was relative to the amount of SEAP produced in the positive and negative control wells contained within each assay plate. The concentrations and % effect values for test compounds were fit using a 4-parameter logistic model in ABase and the concentration of compound that produced 50% response (EC50) was calculated.

[2] = biological target: T2, human toll like receptor 7 (hTLR7) (Homo sapiens, UniProt Q9NYK1); assay: hTLR7 in-vitro functional assay (HEK-Blue hTLR7 SEAP reporter); assay type: cell-based; settings: HEK-Blue hTLR7 cells, overnight incubation
T2 construct: host or cells: HEK293 (HEK-Blue hTLR7)
T2 sequence (Q9NYK1 27-1049): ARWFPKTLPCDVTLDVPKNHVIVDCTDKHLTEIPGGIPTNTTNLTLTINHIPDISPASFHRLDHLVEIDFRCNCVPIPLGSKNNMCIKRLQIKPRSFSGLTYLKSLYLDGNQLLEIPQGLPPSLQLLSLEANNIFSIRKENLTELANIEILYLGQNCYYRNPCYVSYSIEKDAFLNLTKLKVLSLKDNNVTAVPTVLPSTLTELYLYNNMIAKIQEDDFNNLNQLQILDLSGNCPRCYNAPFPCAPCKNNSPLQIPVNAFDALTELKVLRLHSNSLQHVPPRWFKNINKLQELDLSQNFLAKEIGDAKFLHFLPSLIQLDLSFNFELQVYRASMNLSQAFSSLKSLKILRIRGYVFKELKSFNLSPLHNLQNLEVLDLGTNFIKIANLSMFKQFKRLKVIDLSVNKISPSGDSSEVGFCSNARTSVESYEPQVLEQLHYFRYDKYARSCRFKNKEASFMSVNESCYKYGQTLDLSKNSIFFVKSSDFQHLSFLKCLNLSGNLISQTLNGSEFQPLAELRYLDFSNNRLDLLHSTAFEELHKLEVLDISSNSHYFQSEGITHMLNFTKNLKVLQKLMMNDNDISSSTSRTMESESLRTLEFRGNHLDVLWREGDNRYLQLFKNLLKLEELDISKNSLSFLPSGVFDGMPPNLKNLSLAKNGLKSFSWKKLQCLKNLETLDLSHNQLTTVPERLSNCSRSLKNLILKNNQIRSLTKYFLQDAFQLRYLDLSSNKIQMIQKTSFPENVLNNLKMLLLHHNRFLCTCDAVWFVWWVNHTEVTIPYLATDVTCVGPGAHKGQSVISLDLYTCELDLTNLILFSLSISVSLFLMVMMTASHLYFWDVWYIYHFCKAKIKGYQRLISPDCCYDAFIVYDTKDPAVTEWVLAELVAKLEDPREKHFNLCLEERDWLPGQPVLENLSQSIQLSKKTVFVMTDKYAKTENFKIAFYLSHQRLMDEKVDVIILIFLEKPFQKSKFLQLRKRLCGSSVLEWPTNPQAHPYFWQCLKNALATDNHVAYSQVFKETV
Source text: as §1, §2, §3, §4

| SMILES | EC50 [1] [nM] | EC50 [2] [nM] |
| --- | --- | --- |
| CCCCc1nc2c(N)nc3cc(CCCN4CCN(CCCOCCOCCOCCOCCOCCOCCOCCOCCOCCOCCOCCOCCOCCOCCOCCOCCOCCOCCOCCOCCOCCOCCOCCOCCNC(=O)O[C@H]5CC[C@@]6(C)C(=CC[C@H]7[C@@H]8CC[C@H]([C@H](C)CCCC(C)C)[C@@]8(C)CC[C@@H]76)C5)CC4)ccc3c2n1CC(C)(CO)CO [Compound 16, (20R)-cholest-5-en-3beta-yl {75-[4-(3-{4-amino-2-butyl-1-[3-hydroxy-2-(hydroxymethyl)-2-methylpropyl]-1H-imidazo[4,5-c]quinolin-7-yl}propyl)piperazin-1-yl]-3,6,9,12,15,18,21,24,27,30,33,36,39,42,45,48,51,54,57,60,63,66,69,72-tetracosaoxapentaheptacontan-1-yl}carbamate] | > 25000 | 278 |
| CCCCc1nc2c(N)nc3cc(CCCN4CCN(CCCOCCOCCOCCOCCOCCOCCOCCOCCOCCOCCOCCOCCOCCOCCOCCOCCOCCOCCOCCOCCOCCOCCOCCOCCNC(=O)CCOCCOCCOCCOCCNC(=O)O[C@H]5CC[C@@]6(C)C(=CC[C@H]7[C@@H]8CC[C@H]([C@H](C)CCCC(C)C)[C@@]8(C)CC[C@@H]76)C5)CC4)ccc3c2n1CC(C)(CO)CO [Compound 17, (3beta)-cholest-5-en-3-yl {91-[4-(3-{4-amino-2-butyl-1-[3-hydroxy-2-(hydroxymethyl)-2-methylpropyl]-1H-imidazo[4,5-c]quinolin-7-yl}propyl)piperazin-1-yl]-15-oxo-3,6,9,12,19,22,25,28,31,34,37,40,43,46,49,52,55,58,61,64,67,70,73,76,79,82,85,88-octacosaoxa-16-azahennonacont-1-yl}carbamate] | 2610 | 282 |
| CCCCc1nc2c(N)nc3cc(CCCN4CCN(CCCOCCOCCNC(=O)O[C@H]5CC[C@@]6(C)C(=CC[C@H]7[C@@H]8CC[C@H]([C@H](C)CCCC(C)C)[C@@]8(C)CC[C@@H]76)C5)CC4)ccc3c2n1CC(C)(CO)CO [Compound 18, (20R)-cholest-5-en-3beta-yl [2-(2-{3-[4-(3-{4-amino-2-butyl-1-[3-hydroxy-2-(hydroxymethyl)-2-methylpropyl]-1H-imidazo[4,5-c]quinolin-7-yl}propyl)piperazin-1-yl]propoxy}ethoxy)ethyl]carbamate] | 9900 | 288 |
| CCCCc1nc2c(N)nc3cc(CCCN4CCN(C(=O)CCOCCOCCOCCOCCOCCOCCOCCOCCNC(=O)O[C@H]5CC[C@@]6(C)C(=CC[C@H]7[C@@H]8CC[C@H]([C@H](C)CCCC(C)C)[C@@]8(C)CC[C@@H]76)C5)CC4)ccc3c2n1CC(C)(CO)CO [Compound 19, (20R)-cholest-5-en-3beta-yl {27-[4-(3-{4-amino-2-butyl-1-[3-hydroxy-2-(hydroxymethyl)-2-methylpropyl]-1H-imidazo[4,5-c]quinolin-7-yl}propyl)piperazin-1-yl]-27-oxo-3,6,9,12,15,18,21,24-octaoxaheptacosan-1-yl}carbamate] | 20200 | 362 |
| CCCCc1nc2c(N)nc3cc(CCCN4CCN(C(=O)CCOCCOCCOCCOCCOCCOCCOCCOCCOCCOCCOCCOCCNC(=O)O[C@H]5CC[C@@]6(C)C(=CC[C@H]7[C@@H]8CC[C@H]([C@H](C)CCCC(C)C)[C@@]8(C)CC[C@@H]76)C5)CC4)ccc3c2n1CC(C)(CO)CO [Compound 20, (20R)-cholest-5-en-3beta-yl {39-[4-(3-{4-amino-2-butyl-1-[3-hydroxy-2-(hydroxymethyl)-2-methylpropyl]-1H-imidazo[4,5-c]quinolin-7-yl}propyl)piperazin-1-yl]-39-oxo-3,6,9,12,15,18,21,24,27,30,33,36-dodecaoxanonatriacontan-1-yl}carbamate] | 21800 | 443 |
| CCCCc1nc2c(N)nc3cc(CCCN4CCN(CCCOCCOCCOCCOCCOCCOCCOCCOCCOCCOCCOCCOCCNC(=O)O[C@H]5CC[C@@]6(C)C(=CC[C@H]7[C@@H]8CC[C@H]([C@H](C)CCCC(C)C)[C@@]8(C)CC[C@@H]76)C5)CC4)ccc3c2n1CC(C)(CO)CO [Compound 21, (20R)-cholest-5-en-3beta-yl {39-[4-(3-{4-amino-2-butyl-1-[3-hydroxy-2-(hydroxymethyl)-2-methylpropyl]-1H-imidazo[4,5-c]quinolin-7-yl}propyl)piperazin-1-yl]-3,6,9,12,15,18,21,24,27,30,33,36-dodecaoxanonatriacontan-1-yl}carbamate] | > 25000 | 533 |
| CCCCc1nc2c(N)nc3cc(CCCN4CCN(CCCOCCOCCOCCOCCNC(=O)O[C@H]5CC[C@@]6(C)C(=CC[C@H]7[C@@H]8CC[C@H]([C@H](C)CCCC(C)C)[C@@]8(C)CC[C@@H]76)C5)CC4)ccc3c2n1CC(C)(CO)CO [Compound 22, (20R)-cholest-5-en-3beta-yl {15-[4-(3-{4-amino-2-butyl-1-[3-hydroxy-2-(hydroxymethyl)-2-methylpropyl]-1H-imidazo[4,5-c]quinolin-7-yl}propyl)piperazin-1-yl]-3,6,9,12-tetraoxapentadecan-1-yl}carbamate] | 11700 | 1160 |

Source: patent US20250135006A1, “AMPHIPHILIC TLR7/8 ADJUVANTS AND USES THEREOF” (Pfizer Inc., priority 2023, published 2025)
